Reference: patent US20130029959A1, “COMPOSITIONS AND METHODS FOR THE TREATMENT OF CANCER” (Massachusetts Institute of Technology, priority 2011, published 2013)
“Also recorded” adds a separate entry of the source.

What was measured:
[1] = tested on: human lung carcinoma A549 cells; assay: MTT assay, A549 cells; assay type: cell-based
Method: (§6) Solutions of the platinum compounds were freshly prepared in sterile PBS before use and their concentrations quantitated by atomic absorption spectroscopy. Cells were seeded on a 96-well plate (1200 cells per well for cancer cells and 1800 cells per well for the normal lung fibroblasts) in 100 μL RPMI or DMEM media, and incubated for 24 h. […] The cells were then treated with 20 μL of 3-(4,5-dimethylthiazol-2-yl)-2,5-diphenyltetrazolium bromide (MTT) (5 mg/mL in PBS) and incubated for 4 h. The medium was removed, 100 μL of DMSO was added to the cells, and the absorbance of the purple formazan was recorded at 560 nm using a BioTek Synergy HT multi-detection microplate plate reader. Each condition was performed in triplicate and three independent experiments were carried out for each cell line.
Solutions of the platinum agents were freshly prepared in sterile PBS before use and the platinum content was quantitated by AAS. Cells were seeded on 96 well plates (1200 cells per well) in 100 μL RPMI or DMEM media\ and incubated for 24 hours. […] The cells were then treated with 20 μL of 3-(4,5-dimethylthiazol-2-yl)-2,5-diphenyltetrazolium bromide (MTT) (5 mg/mL in PBS) and incubated for 4 h. The medium was removed, 100 μL of DMSO were added to the cells, and the absorbance of the purple formazan was recorded at 570 nm using a BioTek Synergy HT multi-detection microplate plate reader. For each cell line, three independent experiments were carried out in triplicate.

[2] = tested on: human bone sarcoma U2OS cells; assay: MTT assay, U2OS cells; assay type: cell-based; details: 72-h incubation
Method: Human colon carcinoma HT29, human breast carcinoma MCF7, human bone sarcoma U2OS, human prostate carcinoma PC3, and human cervix carcinoma HeLa cells were obtained from the ATCC. A2780/CP70 cisplatin-resistant human ovarian cancer cells were kindly provided by Dr. Stephen B. Howell (Moores UCSD Cancer Center) and the human lung carcinoma cell lines A549 and normal lung fibroblast MRC5 by David E. Root (Whitehead Institute for Biomedical Research). Cells were incubated at 37° C. in 5% CO2 and grown in RPMI (HT29, A2780/CP70, and PC3) or DMEM (A549, MRC5, HeLa, MCF7, and U2OS) medium supplemented with 10% fetal bovine serum and 1% penicillin/streptomycin. Cells were passed every 3 to 4 days and restarted from a frozen stock upon reaching pass number 20.
Solutions of the platinum compounds were freshly prepared in sterile PBS before use and their concentrations quantitated by atomic absorption spectroscopy. […] The cells were then treated with 20 μL of 3-(4,5-dimethylthiazol-2-yl)-2,5-diphenyltetrazolium bromide (MTT) (5 mg/mL in PBS) and incubated for 4 h. The medium was removed, 100 μL of DMSO was added to the cells, and the absorbance of the purple formazan was recorded at 560 nm using a BioTek Synergy HT multi-detection microplate plate reader. Each condition was performed in triplicate and three independent experiments were carried out for each cell line. […]

[3] = tested on: normal lung fibroblast MRC5; assay: MTT assay, MRC5 cells; assay type: cell-based, human; details: MRC5, 72-h incubation, Table 5
Method: as §6

[4] = tested on: human colon carcinoma HT29 cells; assay: MTT assay, HT29 cells; assay type: cell-based; details: HT29, 72-h incubation, Table 5
Method: Solutions of the platinum compounds were freshly prepared in sterile PBS before use and their concentrations quantitated by atomic absorption spectroscopy. Cells were seeded on a 96-well plate (1200 cells per well for cancer cells and 1800 cells per well for the normal lung fibroblasts) in 100 μL RPMI or DMEM media, and incubated for 24 h. […] The medium was removed, 100 μL of DMSO was added to the cells, and the absorbance of the purple formazan was recorded at 560 nm using a BioTek Synergy HT multi-detection microplate plate reader. […]

[5] = tested on: human cervix carcinoma HeLa cells; assay: MTT assay, HeLa cells; assay type: cell-based; details: 72-h incubation, Table 5
Method: as §6
Solutions of the platinum agents were freshly prepared in sterile PBS before use and the platinum content was quantitated by AAS. […] The medium was removed, 100 μL of DMSO were added to the cells, and the absorbance of the purple formazan was recorded at 570 nm using a BioTek Synergy HT multi-detection microplate plate reader. […]

NTera2 (Testis) cells = assay: MTT assay, NTera2 cells; assay type: cell-based, human; details: 72-h incubation, Table 3
Method: as §6

[6] = tested on: GLuc expression from transfected A549 cells; assay: GLuc transcription assay, globally platinated probes, A549; assay type: cell-based, human; details: for transcription inhibition, in words: globally platinated probes; for transcription level (normalized against unplatinated plasmid): Pt/DNA ratio of […] for phenanthriplatin
Method: (§1) Transfection of transcription probes into A549 and HT29 cells with the pGLuc plasmid was carried out using liposomal transfecting agents. Determination of expression levels was tested by Luciferase assays monitored by a luminometer (J. Am. Chem. Soc. 2010, 132, 7429-7435). A549 cells were plated in 96-well plates at 2,000 cells/well and HT29 cells were plated in 96-well plates at 6,000 cells/well. After 48 h incubation (at ˜30% confluence), cells were transfected with 50 ng of platinated plasmids in 25 μL Opti-MEM and 0.125 μL Lipofectamine 2000, and subsequently 50 μL of antibiotics-free DMEM supplemented with 10% FBS. After 2 h, the cells were washed with medium and 100 μL of fresh medium was added. The experiment was carried out in quadruplicate.
(§2) GLuc activity was monitored using a luminescence plate reader (Synergy 2, BioTek, Winooski, Vt., USA). A 10 μL volume of medium at different time points (12, 24, 36, 48, 60 h) was transferred into opaque white 96-well plates, and 25 μL of GLuc assay solution (10 μM colelenterazine (NanoLight Technologies, Pinetop, Ariz., USA) in 2.5 mM acidified methanol (100 mM HCl), buffer (10 mM Tris-HCl pH 7.8, 1 mM EDTA, 0.6 M NaCl)) was added by the automatic injector of the instrument.
(§3) Investigations of the cellular processing of Pt-DNA lesions are important for understanding the mechanism of action of platinum drugs. One of the major consequences of Pt-DNA damage is transcription inhibition, the extent of which dictates the efficacy of Pt drugs.
(§4) A549 or HT29 cells were transfected using these platinated transcription probes for 2 h at 37° C. and cell media were collected at 12, 24, 36, 48, and 60 h after the transfection. The levels of GLuc expression in cells were measured using a luminometer. The intensity values were normalized against controls (unplatinated plasmid). Transcription profiles were obtained by plotting normalized levels of GLuc expression against platination levels (Pt/plasmid ratio) at five different time points (FIG. 5). […] In FIG. 5: transcription profiles of globally platinated probes in A549 (top) and HT29 (bottom) cells.
(§5) In another embodiment, A549 or HT29 cells were transfected using the platinated transcription probes, and transcription levels were investigated by determining GLuc expression as measured by […] following addition of coelenterazine as a substrate for the exported enzyme. The emission intensities were normalized against unplatinated plasmids as a control. Transcription profiles were obtained by plotting normalized levels of GLuc expression against platination levels (Pt/plasmid ratio) at five different time points. […] An increase in D0 value at different time points represents restoration of transcription.

[7] = tested on: GLuc expression from transfected HT29 cells; assay: GLuc transcription assay, globally platinated probes, HT29; assay type: cell-based, human; details: for transcription inhibition, in words: globally platinated probes; for transcription level (normalized against unplatinated plasmid): Pt/DNA ratio of […] for phenanthriplatin
Method: as §1, §2, §3, §4, §5

[8] = Aquation in D2O by 1H NMR; details: 37° C.
Method: The 1-D ^1H NMR kinetic studies were performed in duplicate as a standard time-arrayed experiment using a variable delayed list. Incremented 1-D spectra were processed in exactly the same way and signals of aromatic amine ligands from platinum compounds were integrated. The relative concentrations of the platinum compound at each time point were calculated from peak integrals. […] Reactions of platinum compounds with 5′-dGMP were performed in NMR tubes containing 2 mM of the platinum compounds and 32 mM (16 equiv) of 5′-dGMP in 10 mM PBS buffer, D2O, pH*7.4 at 37° C.

calf thymus DNA = assay: Ethidium bromide DNA-binding competition, Scatchard analysis; design: key: competitive (type A); non-competitive (type D); both (type B); No inhibition of ethidium binding is labeled as type C
From the text: Using this approach, it is possible to determine whether the inhibition of ethidium binding is competitive (type A), non-competitive (type D), or both (type B). No inhibition of ethidium binding is labeled as type C.

pGLuc plasmid = assay: Global platination of pGLuc plasmid; details: for level of DNA-bound compound per amount added (rb vs. rf): 16 h, 24 mM HEPES pH 7.4, 10 mM NaCl; for level of DNA-bound compound per amount added (rb vs. rf) / rb (bound Pt/nucleotide): 37° C.
Method: The resulting mixtures were dialyzed (molecular weight cut-off 3.5 kDa) against ddH2O overnight at 4° C. with five changes of ddH2O. The rb values (bound Pt/nucleotide) were determined by UV/Vis and atomic absorption spectroscopy.
In one embodiment, the ratio of bound platinum per plasmid was determined by measuring the Pt concentration by atomic absorption spectroscopy and the DNA concentration by UV/Vis spectroscopy.

[9] = equimolar N-AcMet, 37° C.
Method: NMR spectra were collected on a Varian 500 spectrometer equipped with a triple-resonance broadband inverse probe and a variable temperature unit. The 1-D ^1H NMR kinetic studies were performed in duplicate as a standard time-arrayed experiment using a variable delayed list. Incremented 1-D spectra were processed in exactly the same way and signals of aromatic amine ligands from platinum compounds were integrated. The relative concentrations of the platinum compound at each time point were calculated from peak integrals. […] Reactions of platinum compounds with N-AcMet were performed in NMR tubes containing 2 mM of the Pt complex and 2 mM (1 equiv) of N-AcMet in 10 mM PBS buffer, D2O, pH*7.4 at 37° C. […] Deuterated 3-(trimethylsilyl)propionic acid sodium salt (TMS-PFASS) was used as an internal standard. The pH* values are the measured pH values without correction for the effect of deuterium on the electrode.
(pH*=refers to a pH measurement uncorrected for the effect of deuterium on the electrode.)

[10] = 16 equiv 5′-dGMP, 37° C., PBS pH 7.4
Method: The 1-D ^1H NMR kinetic studies were performed in duplicate as a standard time-arrayed experiment using a variable delayed list. Incremented 1-D spectra were processed in exactly the same way and signals of aromatic amine ligands from platinum compounds were integrated. The relative concentrations of the platinum compound at each time point were calculated from peak integrals. […] Reactions of platinum compounds with 5′-dGMP were performed in NMR tubes containing 2 mM of the platinum compounds and 32 mM (16 equiv) of 5′-dGMP in 10 mM PBS buffer, D2O, pH*7.4 at 37° C. Deuterated 3-(trimethylsilyl)propionic acid sodium salt (TMS-PFASS) was used as an internal standard. The pH* values are the measured pH values without correction for the effect of deuterium on the electrode.

O=[N+]([O-])[O-].[NH3+][Pt-2]([NH3+])([Cl])[n+]1cccc2ccccc21 (stereo not drawn) [cis-[Pt(NH3)2(quinoline)Cl]NO3]
IC50 ([1]; A549, 72-h incubation, Table 5): 6.11 ± 0.68 µM
IC50 ([2]; U2OS, Table 5): 23.5 ± 2.7 µM
IC50 [3]: 23.5 ± 1.6 µM
IC50 [4]: 38 ± 4.5 µM
IC50 [5]: 12.2 ± 0.8 µM

O=C1[O][Pt]2([NH][C@@H]3CCCC[C@H]3[NH]2)[O]C1=O [oxaliplatin]
IC50 ([1]; A549 (Lung), 72-h incubation, Table 3): 8.79 ± 0.26 µM
IC50 ([2]; U2OS (Bone), Table 3): 6.67 ± 0.59 µM
IC50 (NTera2 (Testis) cells): 1.21 ± 0.06 µM

cis-[Pt(NH3)2(phenanthridine)Cl]NO3 [phenanthriplatin]
transcription inhibition, in words [6]: as strongly as cisplatin; also recorded: as efficiently as cisplatin
transcription inhibition, in words [7]: as strongly as cisplatin; also recorded: as efficiently as cisplatin
time to complete aquation (equilibrium with aqua analogue) [8]: ≤ 1 h
type of inhibition of ethidium binding (calf thymus DNA; 12-h incubation period): D
type of inhibition of ethidium binding (calf thymus DNA; 1 min incubation period): C
level of DNA-bound compound per amount added (rb vs. rf) (pGLuc plasmid): almost identical to that of cisplatin
rb (bound Pt/nucleotide) (pGLuc plasmid; rf 0.0008, 16 h): 0.0015
rb (bound Pt/nucleotide) (pGLuc plasmid; rf 0.0019, 16 h): 0.0019
rb (bound Pt/nucleotide) (pGLuc plasmid; rf 0.0029, 16 h): 0.0030
rb (bound Pt/nucleotide) (pGLuc plasmid; rf 0.0060, 16 h): 0.0053

pyriplatin
transcription level (normalized against unplatinated plasmid) ([6]; 12 h): 55.2%
transcription level (normalized against unplatinated plasmid) ([6]; 60 h): 66.8%
transcription inhibition, in words [6]: less efficient than that of either cisplatin or phenanthriplatin by a factor of two
IC50 ([1]; A549, 72-h incubation, Table 5): 62.1 ± 2.3 µM
reaction with N-AcMet more rapid than that for phenanthriplatin [9]: > 10 fold
second-order rate constant, reaction with N-AcMet [9]: 0.156 M⁻¹ s⁻¹
transcription level (normalized against unplatinated plasmid) ([7]; 12 h): 55.3%
transcription level (normalized against unplatinated plasmid) ([7]; 60 h): 75.2%
transcription inhibition, in words [7]: less efficient than that of either cisplatin or phenanthriplatin by a factor of two
time to complete aquation (equilibrium with aqua analogue) [8]: ≤ 1 h
IC50 [3]: 82.1 µM
type of inhibition of ethidium binding (calf thymus DNA; 12-h incubation period): C
type of inhibition of ethidium binding (calf thymus DNA; 1 min incubation period): C
level of DNA-bound compound per amount added (rb vs. rf) (pGLuc plasmid): almost identical to that of cisplatin
Pt per plasmid (pGLuc plasmid; rf 0.0016): 13.33 Pt per plasmid
rb (bound Pt/nucleotide) (pGLuc plasmid; rf 0.0016, 16 h): 0.0017
Pt per plasmid (pGLuc plasmid; rf 0.004): 31.19 Pt per plasmid
rb (bound Pt/nucleotide) (pGLuc plasmid; rf 0.004, 16 h): 0.0039
Pt per plasmid (pGLuc plasmid; rf 0.0076): 57.96 Pt per plasmid
rb (bound Pt/nucleotide) (pGLuc plasmid; rf 0.0076, 16 h): 0.0073
Pt per plasmid (pGLuc plasmid; rf 0.015): 117.31 Pt per plasmid
rb (bound Pt/nucleotide) (pGLuc plasmid; rf 0.015, 16 h): 0.0015
pseudo-first order rate constant, reaction with 5′-dGMP [10]: 0.29 h⁻¹
